From ChEMBL document CHEMBL5291721, “A preclinical secondary pharmacology resource illuminates target-adverse drug reaction associations of marketed drugs” (Nat Commun, 2023)

Assays:
[1] = target: T1, Equilibrative nucleoside transporter 1 (Homo sapiens, UniProt Q99808)
T1 sequence (Q99808 whole entry): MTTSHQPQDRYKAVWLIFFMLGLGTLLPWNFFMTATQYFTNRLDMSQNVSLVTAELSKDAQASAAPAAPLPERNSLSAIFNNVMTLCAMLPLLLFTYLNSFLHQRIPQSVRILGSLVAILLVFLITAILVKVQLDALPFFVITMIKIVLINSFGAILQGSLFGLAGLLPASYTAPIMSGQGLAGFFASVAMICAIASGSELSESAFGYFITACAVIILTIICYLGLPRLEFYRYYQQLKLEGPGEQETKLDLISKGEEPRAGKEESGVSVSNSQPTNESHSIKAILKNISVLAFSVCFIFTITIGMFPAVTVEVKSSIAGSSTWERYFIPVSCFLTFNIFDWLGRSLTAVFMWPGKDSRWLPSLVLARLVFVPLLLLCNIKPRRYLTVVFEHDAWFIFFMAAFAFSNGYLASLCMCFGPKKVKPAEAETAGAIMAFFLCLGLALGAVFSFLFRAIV

D(1A) dopamine receptor = D(1A) dopamine receptor (Homo sapiens, UniProt P21728); format: functional, cell-based
Sequence of D(1A) dopamine receptor (P21728 whole entry): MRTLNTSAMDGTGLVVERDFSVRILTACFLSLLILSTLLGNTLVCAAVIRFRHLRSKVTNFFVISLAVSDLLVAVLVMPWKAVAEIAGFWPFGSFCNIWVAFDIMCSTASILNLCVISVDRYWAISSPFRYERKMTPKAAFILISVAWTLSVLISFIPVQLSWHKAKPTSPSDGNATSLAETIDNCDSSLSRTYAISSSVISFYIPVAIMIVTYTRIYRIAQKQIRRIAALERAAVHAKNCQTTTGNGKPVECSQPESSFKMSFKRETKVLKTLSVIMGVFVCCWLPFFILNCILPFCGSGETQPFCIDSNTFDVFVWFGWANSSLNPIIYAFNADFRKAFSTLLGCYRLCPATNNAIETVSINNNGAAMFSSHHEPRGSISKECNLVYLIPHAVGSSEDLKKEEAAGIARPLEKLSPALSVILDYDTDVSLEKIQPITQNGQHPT

[2] = target: T2, Gastrin/cholecystokinin type B receptor (Homo sapiens, UniProt P32239)
T2 sequence (P32239 whole entry): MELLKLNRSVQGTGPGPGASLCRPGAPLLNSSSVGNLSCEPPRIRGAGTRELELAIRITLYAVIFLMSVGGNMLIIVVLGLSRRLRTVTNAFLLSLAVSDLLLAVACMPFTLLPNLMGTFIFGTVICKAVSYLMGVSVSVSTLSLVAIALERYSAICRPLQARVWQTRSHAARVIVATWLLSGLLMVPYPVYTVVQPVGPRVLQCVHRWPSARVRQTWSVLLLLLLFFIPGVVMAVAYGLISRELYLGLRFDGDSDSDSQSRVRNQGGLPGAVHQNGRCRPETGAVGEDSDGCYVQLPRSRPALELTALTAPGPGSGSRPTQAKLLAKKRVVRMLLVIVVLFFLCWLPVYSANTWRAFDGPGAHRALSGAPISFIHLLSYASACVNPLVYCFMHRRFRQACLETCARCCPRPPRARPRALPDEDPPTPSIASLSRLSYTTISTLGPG

[3] = target: Sodium-dependent dopamine transporter (Homo sapiens, UniProt Q01959)
[4] = target: Voltage-dependent L-type calcium channel subunit alpha-1C (Rattus norvegicus, UniProt P22002); format: functional
Sequence of Voltage-dependent L-type calcium channel subunit alpha-1C (P22002 whole entry): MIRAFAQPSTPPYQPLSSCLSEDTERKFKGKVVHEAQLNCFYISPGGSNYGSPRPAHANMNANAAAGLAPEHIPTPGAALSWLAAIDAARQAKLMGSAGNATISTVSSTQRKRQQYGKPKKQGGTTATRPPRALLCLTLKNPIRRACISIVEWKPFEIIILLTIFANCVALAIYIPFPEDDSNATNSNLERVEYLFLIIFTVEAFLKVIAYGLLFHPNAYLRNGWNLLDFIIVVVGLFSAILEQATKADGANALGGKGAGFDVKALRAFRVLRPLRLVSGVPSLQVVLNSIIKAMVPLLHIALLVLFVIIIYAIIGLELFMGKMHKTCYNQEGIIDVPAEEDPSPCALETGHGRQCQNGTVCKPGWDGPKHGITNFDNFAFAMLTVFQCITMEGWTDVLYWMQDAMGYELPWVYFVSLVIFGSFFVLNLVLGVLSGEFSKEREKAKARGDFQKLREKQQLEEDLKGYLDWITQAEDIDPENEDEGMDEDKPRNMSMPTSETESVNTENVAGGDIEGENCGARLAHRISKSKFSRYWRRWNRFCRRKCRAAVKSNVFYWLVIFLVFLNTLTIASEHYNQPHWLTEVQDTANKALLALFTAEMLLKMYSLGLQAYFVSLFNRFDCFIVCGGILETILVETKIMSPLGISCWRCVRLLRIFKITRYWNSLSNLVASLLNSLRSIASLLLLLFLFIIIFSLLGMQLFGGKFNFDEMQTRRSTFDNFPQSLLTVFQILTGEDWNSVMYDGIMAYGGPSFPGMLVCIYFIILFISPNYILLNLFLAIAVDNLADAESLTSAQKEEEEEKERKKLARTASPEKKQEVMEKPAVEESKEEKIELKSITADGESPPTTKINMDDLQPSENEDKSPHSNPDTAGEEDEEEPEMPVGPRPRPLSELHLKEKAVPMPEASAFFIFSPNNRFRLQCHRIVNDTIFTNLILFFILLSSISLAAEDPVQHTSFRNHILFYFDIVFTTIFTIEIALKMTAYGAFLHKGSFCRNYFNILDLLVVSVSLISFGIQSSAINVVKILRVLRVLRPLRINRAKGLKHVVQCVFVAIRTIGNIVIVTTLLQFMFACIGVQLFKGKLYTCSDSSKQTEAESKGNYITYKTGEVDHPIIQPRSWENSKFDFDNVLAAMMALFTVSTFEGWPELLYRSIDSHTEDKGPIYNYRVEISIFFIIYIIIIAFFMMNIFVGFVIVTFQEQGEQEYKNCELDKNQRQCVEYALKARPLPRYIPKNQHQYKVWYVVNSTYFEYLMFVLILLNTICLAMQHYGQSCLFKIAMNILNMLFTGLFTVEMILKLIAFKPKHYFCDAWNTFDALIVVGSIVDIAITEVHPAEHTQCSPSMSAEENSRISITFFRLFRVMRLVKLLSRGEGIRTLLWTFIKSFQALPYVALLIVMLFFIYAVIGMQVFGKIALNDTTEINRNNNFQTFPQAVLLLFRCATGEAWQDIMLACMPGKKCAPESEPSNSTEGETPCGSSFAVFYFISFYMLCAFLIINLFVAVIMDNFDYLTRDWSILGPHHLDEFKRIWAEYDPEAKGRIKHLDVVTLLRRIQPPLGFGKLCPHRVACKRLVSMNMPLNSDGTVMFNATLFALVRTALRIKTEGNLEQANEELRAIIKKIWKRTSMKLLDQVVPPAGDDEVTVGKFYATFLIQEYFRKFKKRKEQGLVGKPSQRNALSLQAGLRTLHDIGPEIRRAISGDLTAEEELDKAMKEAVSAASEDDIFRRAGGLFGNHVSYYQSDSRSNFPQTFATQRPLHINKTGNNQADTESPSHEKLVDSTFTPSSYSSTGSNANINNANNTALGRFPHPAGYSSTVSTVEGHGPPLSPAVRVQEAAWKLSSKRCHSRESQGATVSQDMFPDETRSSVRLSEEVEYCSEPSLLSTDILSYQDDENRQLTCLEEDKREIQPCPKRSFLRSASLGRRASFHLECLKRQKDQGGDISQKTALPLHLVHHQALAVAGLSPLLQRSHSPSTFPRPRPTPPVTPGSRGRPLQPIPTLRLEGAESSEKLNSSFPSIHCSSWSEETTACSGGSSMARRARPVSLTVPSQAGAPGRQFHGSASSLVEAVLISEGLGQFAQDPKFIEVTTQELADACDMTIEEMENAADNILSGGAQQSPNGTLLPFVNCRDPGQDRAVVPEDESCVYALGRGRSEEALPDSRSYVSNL

[5] = target: T3, Alpha-1A adrenergic receptor (Homo sapiens, UniProt P35348); format: functional, cell-based
T3 sequence (P35348 whole entry): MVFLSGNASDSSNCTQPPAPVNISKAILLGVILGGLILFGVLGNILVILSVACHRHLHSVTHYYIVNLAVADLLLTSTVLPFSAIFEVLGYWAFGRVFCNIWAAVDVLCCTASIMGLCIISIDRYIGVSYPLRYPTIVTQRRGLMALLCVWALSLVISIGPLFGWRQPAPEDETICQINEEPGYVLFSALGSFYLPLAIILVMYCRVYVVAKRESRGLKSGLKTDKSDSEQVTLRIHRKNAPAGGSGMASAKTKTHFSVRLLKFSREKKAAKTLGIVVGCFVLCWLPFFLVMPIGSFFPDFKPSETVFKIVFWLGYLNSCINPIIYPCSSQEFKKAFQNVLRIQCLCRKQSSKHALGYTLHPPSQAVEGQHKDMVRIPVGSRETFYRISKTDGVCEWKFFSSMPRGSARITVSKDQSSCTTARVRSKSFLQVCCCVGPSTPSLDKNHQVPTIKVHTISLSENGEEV

[6] = target: Voltage-gated inwardly rectifying potassium channel KCNH2 (Homo sapiens, UniProt Q12809); format: functional; details: read-out: AC50
Sequence of Voltage-gated inwardly rectifying potassium channel KCNH2 (Q12809 whole entry): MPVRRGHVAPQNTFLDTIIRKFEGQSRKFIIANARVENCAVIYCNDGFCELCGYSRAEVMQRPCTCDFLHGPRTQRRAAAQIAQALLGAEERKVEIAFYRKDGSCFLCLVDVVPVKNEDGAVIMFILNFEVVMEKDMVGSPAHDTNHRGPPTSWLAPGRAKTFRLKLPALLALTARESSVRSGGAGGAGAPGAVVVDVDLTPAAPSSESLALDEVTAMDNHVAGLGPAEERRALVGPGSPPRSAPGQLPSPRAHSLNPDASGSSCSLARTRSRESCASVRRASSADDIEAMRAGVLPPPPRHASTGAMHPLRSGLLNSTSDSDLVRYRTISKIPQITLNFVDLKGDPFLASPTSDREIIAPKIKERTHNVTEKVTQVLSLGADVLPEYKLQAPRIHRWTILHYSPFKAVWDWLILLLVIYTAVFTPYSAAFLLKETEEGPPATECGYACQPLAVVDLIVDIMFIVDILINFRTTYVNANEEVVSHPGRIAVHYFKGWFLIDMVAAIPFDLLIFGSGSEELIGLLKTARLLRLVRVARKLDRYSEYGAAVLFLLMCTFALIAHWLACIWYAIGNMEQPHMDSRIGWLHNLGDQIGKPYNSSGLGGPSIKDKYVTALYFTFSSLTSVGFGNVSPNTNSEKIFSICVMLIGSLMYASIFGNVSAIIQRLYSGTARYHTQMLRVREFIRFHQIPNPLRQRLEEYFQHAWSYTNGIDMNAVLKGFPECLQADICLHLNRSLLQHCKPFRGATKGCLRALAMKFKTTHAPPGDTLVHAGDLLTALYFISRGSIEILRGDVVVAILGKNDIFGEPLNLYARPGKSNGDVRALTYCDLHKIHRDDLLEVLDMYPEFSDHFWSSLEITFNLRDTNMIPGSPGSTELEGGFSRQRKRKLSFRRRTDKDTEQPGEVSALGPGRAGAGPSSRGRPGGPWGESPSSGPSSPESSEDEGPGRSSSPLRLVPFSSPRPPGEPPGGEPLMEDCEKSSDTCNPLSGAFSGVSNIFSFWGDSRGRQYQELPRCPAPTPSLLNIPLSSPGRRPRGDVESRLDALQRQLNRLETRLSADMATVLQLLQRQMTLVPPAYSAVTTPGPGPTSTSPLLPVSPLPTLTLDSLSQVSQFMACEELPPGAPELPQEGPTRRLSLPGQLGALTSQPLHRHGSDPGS

[7] = target: Gamma-aminobutyric acid receptor subunit alpha-1 (Rattus norvegicus, UniProt P62813); format: functional
Sequence of Gamma-aminobutyric acid receptor subunit alpha-1 (P62813 whole entry): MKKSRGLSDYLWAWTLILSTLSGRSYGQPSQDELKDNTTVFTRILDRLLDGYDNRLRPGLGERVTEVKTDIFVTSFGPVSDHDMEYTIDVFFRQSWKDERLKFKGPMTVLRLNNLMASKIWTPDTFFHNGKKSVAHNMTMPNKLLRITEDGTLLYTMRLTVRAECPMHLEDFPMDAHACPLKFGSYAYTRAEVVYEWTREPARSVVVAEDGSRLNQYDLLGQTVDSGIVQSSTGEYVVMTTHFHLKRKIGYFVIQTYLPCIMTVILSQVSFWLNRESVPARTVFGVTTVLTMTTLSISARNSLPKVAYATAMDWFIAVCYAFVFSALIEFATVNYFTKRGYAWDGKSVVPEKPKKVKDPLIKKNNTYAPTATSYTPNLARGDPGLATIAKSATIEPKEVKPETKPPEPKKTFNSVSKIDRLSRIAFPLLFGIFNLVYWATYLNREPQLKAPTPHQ

Vasopressin V2 receptor = Vasopressin V2 receptor (Homo sapiens, UniProt P30518)
[8] = target: T4, Alpha-2C adrenergic receptor (Homo sapiens, UniProt P18825); format: functional
T4 sequence (P18825 whole entry): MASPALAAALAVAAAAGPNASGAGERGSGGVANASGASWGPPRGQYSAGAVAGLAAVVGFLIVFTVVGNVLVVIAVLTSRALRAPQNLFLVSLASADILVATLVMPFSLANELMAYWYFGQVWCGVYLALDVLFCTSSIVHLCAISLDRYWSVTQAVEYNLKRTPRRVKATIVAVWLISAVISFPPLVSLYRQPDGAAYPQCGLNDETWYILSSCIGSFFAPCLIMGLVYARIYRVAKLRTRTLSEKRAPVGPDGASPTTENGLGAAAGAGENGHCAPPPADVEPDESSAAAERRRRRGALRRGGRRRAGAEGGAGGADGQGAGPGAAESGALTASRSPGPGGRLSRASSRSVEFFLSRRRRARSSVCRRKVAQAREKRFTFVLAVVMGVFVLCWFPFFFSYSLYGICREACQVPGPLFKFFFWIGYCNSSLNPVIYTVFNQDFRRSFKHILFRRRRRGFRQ

Histamine H2 receptor = Histamine H2 receptor (Homo sapiens, UniProt P25021); format: functional, cell-based
Sequence of Histamine H2 receptor (P25021 whole entry): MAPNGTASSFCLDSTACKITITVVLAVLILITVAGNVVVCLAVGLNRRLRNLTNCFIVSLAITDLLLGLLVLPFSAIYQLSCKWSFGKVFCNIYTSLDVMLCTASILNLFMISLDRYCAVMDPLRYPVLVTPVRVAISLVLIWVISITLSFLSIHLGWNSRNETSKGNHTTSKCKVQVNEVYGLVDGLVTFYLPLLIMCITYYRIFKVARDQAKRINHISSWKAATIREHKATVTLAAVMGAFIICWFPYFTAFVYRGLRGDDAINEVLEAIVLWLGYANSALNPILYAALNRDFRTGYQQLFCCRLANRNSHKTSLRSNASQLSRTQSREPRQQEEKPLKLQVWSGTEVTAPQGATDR

[9] = target: T5, 5-hydroxytryptamine receptor 2C (Homo sapiens, UniProt P28335)
T5 sequence (P28335 whole entry): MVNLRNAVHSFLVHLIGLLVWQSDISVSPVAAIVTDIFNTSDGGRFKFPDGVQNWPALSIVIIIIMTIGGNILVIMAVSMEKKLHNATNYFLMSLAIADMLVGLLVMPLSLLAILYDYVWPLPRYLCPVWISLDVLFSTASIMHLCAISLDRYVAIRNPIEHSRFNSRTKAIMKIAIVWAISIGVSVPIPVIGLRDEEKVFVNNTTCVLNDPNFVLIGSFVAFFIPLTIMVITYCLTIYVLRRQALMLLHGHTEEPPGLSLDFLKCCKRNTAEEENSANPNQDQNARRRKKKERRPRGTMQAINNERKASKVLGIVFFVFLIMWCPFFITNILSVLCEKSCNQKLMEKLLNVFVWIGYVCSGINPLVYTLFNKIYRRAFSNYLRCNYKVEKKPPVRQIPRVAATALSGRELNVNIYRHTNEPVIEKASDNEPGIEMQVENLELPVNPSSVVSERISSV

Cannabinoid receptor 1 = Cannabinoid receptor 1 (Homo sapiens, UniProt P21554); format: functional, cell-based
Sequence of Cannabinoid receptor 1 (P21554 whole entry): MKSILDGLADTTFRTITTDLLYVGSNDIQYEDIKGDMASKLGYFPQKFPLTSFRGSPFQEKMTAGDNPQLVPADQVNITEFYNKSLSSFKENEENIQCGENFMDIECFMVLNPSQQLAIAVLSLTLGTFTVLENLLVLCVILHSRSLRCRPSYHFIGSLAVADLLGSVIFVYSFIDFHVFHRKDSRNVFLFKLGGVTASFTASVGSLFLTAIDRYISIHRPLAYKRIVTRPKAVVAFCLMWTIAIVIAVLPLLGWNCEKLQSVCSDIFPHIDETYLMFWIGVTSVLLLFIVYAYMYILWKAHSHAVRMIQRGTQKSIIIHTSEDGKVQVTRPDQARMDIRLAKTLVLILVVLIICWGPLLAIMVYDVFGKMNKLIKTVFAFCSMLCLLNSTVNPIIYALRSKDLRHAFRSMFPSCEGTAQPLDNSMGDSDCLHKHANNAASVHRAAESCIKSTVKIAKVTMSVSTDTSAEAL
Note: assay procedure not described here.

Row | SMILES | AC50 [1] | AC50 (D(1A) dopamine receptor) | AC50 [2] | AC50 [3] | AC50 [4] | AC50 [5] | AC50 [6] | AC50 [7] | AC50 (Vasopressin V2 receptor) | AC50 [8] | AC50 (Histamine H2 receptor) | AC50 [9] | AC50 (Cannabinoid receptor 1)
1 | N#Cc1ccccc1-c1cc(-c2ccccn2)cn(-c2ccccc2)c1=O | > 30 µM | > 30 µM | > 30 µM | > 30 µM | > 30 µM | > 30 µM | > 30 µM | > 30 µM | > 30 µM | > 30 µM | > 30 µM | > 30 µM | > 30 µM
2 | N=C(N)NCCCCCCC(=O)NC(O)C(=O)NCCCCNCCCN (centres undefined) | > 30 µM | > 30 µM | > 30 µM | > 30 µM | > 30 µM | > 30 µM | > 30 µM | > 30 µM | > 30 µM | > 30 µM | > 30 µM | > 30 µM | > 30 µM
3 | O=C(CCCN1CCC(n2c(O)nc3ccccc32)CC1)c1ccc(F)cc1 [BENPERIDOL] | > 30 µM | > 30 µM | > 30 µM | 11 µM | > 30 µM | 0.0706 µM | 0.11 µM | > 30 µM | > 30 µM | 1.9 µM | > 30 µM | 13 µM | > 30 µM
4 | CCN(CC)C(=O)C1CN2CCc3cc(OC)c(OC)cc3C2CC1OC(C)=O (centres undefined) [BENZQUINAMIDE] | > 30 µM | > 30 µM | > 30 µM | > 30 µM | > 10 µM | > 30 µM | > 30 µM | > 30 µM | > 30 µM | 1.7 µM | > 30 µM | 17 µM | > 30 µM
5 | CCC(=O)OCC(=O)[C@@]1(OC(=O)CC)[C@@H](C)C[C@H]2[C@@H]3CCC4=CC(=O)C=C[C@]4(C)[C@@]3(F)[C@@H](O)C[C@@]21C [BETAMETHASONE DIPROPIONATE] | > 30 µM | > 30 µM | > 30 µM | > 30 µM | > 30 µM | > 30 µM | > 30 µM | > 30 µM | > 30 µM | > 30 µM | > 30 µM | > 30 µM | > 30 µM
6 | COc1cc(OC)c(C(=O)CCCN2CCCC2)c(OC)c1 [BUFLOMEDIL] | > 30 µM | > 30 µM | > 30 µM | > 30 µM | > 30 µM | > 30 µM | 2.6 µM | > 30 µM | > 30 µM | 13 µM | > 30 µM | > 30 µM | > 30 µM
7 | Clc1ccc(C(Cn2ccnc2)OCc2ccc(Sc3ccccc3)cc2)c(Cl)c1 (centres undefined) [FENTICONAZOLE] | > 30 µM | > 30 µM | > 30 µM | – | 12 µM | > 30 µM | 1.45 µM | > 30 µM | > 30 µM | > 30 µM | > 30 µM | > 30 µM | 1.3 µM
8 | Nc1ccn([C@@H]2O[C@H](CO)[C@@H](O)C2(F)F)c(=O)n1 [GEMCITABINE] | – | > 10 µM | > 30 µM | > 30 µM | > 10 µM | > 30 µM | > 30 µM | > 10 µM | > 30 µM | > 10 µM | > 10 µM | > 30 µM | > 30 µM
9 | C#C[C@]1(O)CC[C@H]2[C@@H]3CCC4=CC(=O)CCC4=C3C=C[C@@]21CC [GESTRINONE] | – | > 30 µM | > 30 µM | 25 µM | > 30 µM | > 30 µM | > 30 µM | 8.8 µM | > 30 µM | > 30 µM | > 30 µM | > 30 µM | > 30 µM
10 | CC(=O)Nc1c(I)c(C(=O)N[C@H]2C(O)O[C@H](CO)[C@@H](O)[C@@H]2O)c(I)c(N(C)C(C)=O)c1I (some centres undefined) [METRIZAMIDE] | > 10 µM | > 10 µM | – | > 10 µM | > 10 µM | > 30 µM | > 30 µM | > 10 µM | > 10 µM | > 10 µM | > 10 µM | > 30 µM | > 30 µM
11 | O=C1Nc2ccc(Cl)cc2C(c2ccccc2)=NC1O (centres undefined) [OXAZEPAM] | > 30 µM | > 10 µM | > 30 µM | > 10 µM | > 10 µM | > 30 µM | – | 0.03 µM | > 30 µM | > 10 µM | > 10 µM | > 30 µM | > 30 µM
12 | COc1c(O[C@@H]2O[C@H](CO)[C@@H](O)[C@H](O)[C@H]2O)cc2c(c1OC)-c1ccc(SC)c(=O)cc1[C@@H](NC(C)=O)CC2 [THIOCOLCHICOSIDE] | – | > 30 µM | > 30 µM | > 30 µM | > 30 µM | > 30 µM | > 30 µM | > 30 µM | > 30 µM | > 30 µM | > 30 µM | > 30 µM | > 30 µM
13 | CN1[C@@H]2CC[C@H]1C[C@@H](OC(=O)c1c[nH]c3ccccc13)C2 [TROPISETRON] | – | > 30 µM | > 30 µM | > 30 µM | > 30 µM | > 30 µM | 0.95 µM | 0.5 µM | > 30 µM | 27 µM | > 30 µM | > 30 µM | > 30 µM
14 | C=CC(N)CCC(=O)O (centres undefined) [VIGABATRIN] | > 30 µM | > 10 µM | – | 19.5 µM | > 10 µM | > 30 µM | > 30 µM | > 10 µM | > 10 µM | > 10 µM | > 10 µM | > 30 µM | > 30 µM
